“Also recorded” adds a separate entry of the source.
How the values were obtained:
[1] = system: telomerase-positive tumors (WM1175 malignant melanoma or HUT292DM lung cancer); test: Telomerase-positive tumors (WM1175 or HUT292DM cells) in immunodeficient mice treated with AZT; assay type: in vivo; settings: AZT at the dose used for inhibiting the growth of the ALT cancer cells
Experimental: After induction of the tumors, mice in the experimental groups may be treated with AZT. Mice may be injected i.p. twice a day with solution of AZT in PBS with a total daily dose of 10 mg/kg. Mice in the control group may be injected with PBS. Alternatively, AZT at the same daily dose may be given in drinking water. […] As a separate set of controls, telomerase-positive tumors in nude mouse may be induced by injecting the immunodeficient mice with WM1175 (malignant melanoma) or HUT292DM (lung cancer) cells instead of the transformed IIICF/c fibroblast cells.

Saos-2 cells = test: Telomere length (PNA probe) and cell cycle (PI) by flow cytometry in AZT-treated Saos-2 cells; assay type: cell-based, human; settings: Saos-2, AZT 0.2 μM, 14 days
Experimental: (§1) Telomere length in AZT treated and untreated cell lines was measured by flow cytometry with a telomere-specific peptide nucleic acid (PNA) probe^22,23. To determine cell cycle distribution, cells were stained with propidium iodide (PI)^22. […] AZT at the chosen concentration had no effect on telomere length or cell cycle distribution in the HeLa cells (not shown).
(§2) Cell lines: All cell lines used in this study were obtained from American Type Culture Collection (Rockville, Md.). The cells origins included osteosarcoma (Saos-2 and U-2 OS), liver ([…]) and uterine cervix (HeLa). Cells were cultured following ATCC recommendation. For treatment of the cells with AZT, the media was supplemented with 0.2 μM of 3′-azido-2′,3′-dideoxythymidine (Sigma)^28.
(§3) Telomere length measurement by flow cytometry: Cell were stained with telomere specific FITC conjugated (C3TA2)3 PNA (Applied Biosystems) probe and contrastained with 0.06 μg/ml PI as described^21.

U-2 OS cells [2] = test: Bromodeoxyuridine (BdU) incorporation, rate of DNA synthesis in AZT-treated U-2 OS cells; assay type: cell-based, human; settings: AZT for 10, 17 and 40 days
Experimental: Rate of DNA synthesis was determined by incorporation of 5-bromodeoxyuridine (BdU)^24.
as §2
Bromodeoxyuridine incorporation: Cell staining, for BdU incorporation, was performed using cells which were incubated with […] BrdU (Sigma) for 2.5 h, stained with BU-33 anti-BrdU monoclonal antibodies (Sigma) and FITC labeled Alexa 488 goat anti-mouse IgG (H+ L) (Fab′) fragments (Molecular Probes), contrastained with 50 μg/ml PI (Sigma) and analyzed by flow cytometry as described^24.

HeLa cells = test: Telomere length and cell cycle by flow cytometry in AZT-treated telomerase-positive HeLa cells; assay type: cell-based, human; settings: AZT under the same conditions
Experimental: as §1, §2, §3

U-2 OS cells [3] = test: Telomere length (PNA probe) and cell cycle (PI) by flow cytometry in nucleoside-analog-treated U-2 OS cells; assay type: cell-based, human
Experimental: as §1
Telomere length in untreated (FIG. 4a) and GCV treated cells (FIG. 4b) was measured by flow cytometry with a telomere-specific PNA probe as described above.
To determine cell cycle distribution, cells were stained with propidium iodide (PI).
as §2, §3

[4] = system: U-2 OS/ras-V12 s.c. tumors; test: s.c. tumor growth from U-2 OS/ras-V12 cells in nude mice, AZT in drinking water; assay type: in vivo; settings: AZT 2 mg/ml in drinking water from day zero
Description: Exemplary in vivo assays of anti-tumor efficacy of AZT using nude mice subcutaneous (s.c.) tumors grown from the U-2 OS human osteosarcoma cell lines (i.e., xenografts bearing mice) as models are described below.
Human cancerous cells needed for in vivo assays may be prepared, for example, as follows: Telomerase-negative, but ALT positive, U-2 OS human osteosarcoma cell lines are obtained from public sources such as ATCC. Cells are maintained in McCoy 5 media supplemented with 10% fetal calf serum at 37° C. in a humidified atmosphere of 5% CO2. […] Accordingly, activated ras-oncogene expression vector is introduced in near-confluent U-2 OS cells by Lipofectamine 2000% transfection according manufacturer's instructions. One day before transfection U-2 Os cells are seeded at a density 1×10^5 cells in a 6 well-plate. Plasmid pBABE-puro-ras-V12 (available publicly) is linearized by restriction digest with Sca I enzyme. The cells are transfected with the linearized construct and grown in culture. One day after the transfection, cells may be diluted. Then the cells are selected with puromycin ([…]) for 8 days. […]
In one embodiment, impairment of s.c. tumor growth or time to progression rather than decrease in size of an established tumor is assessed. […] Tumors are measured every 2-3 days. […] Tumor volume is calculated with formula 4/3πr^3, where r is the radius of the tumor.

[5] = U-2 OS, GCV 0.3 μg/ml, 14 days, listed as ganciclovir

Compound: Cc1cn([C@H]2C[C@H](N=[N+]=[N-])[C@@H](CO)O2)c(=O)[nH]c1=O [AZT, 3′-azido-2′,3′-dideoxythymidine]
- inhibition of telomerase-positive tumors [1]: cannot be inhibited
- apoptosis (Saos-2 cells): massive apoptosis
- cell cycle distribution (PI) (Saos-2 cells): G2 arrest; also recorded: changes in cell cycle
- telomere length (telomere-specific PNA fluorescence) (Saos-2 cells): telomere shortening; also recorded: decrease in telomere length
- rate of DNA synthesis (BdU incorporation) (U-2 OS cells [2]): decrease in DNA synthesis
- cell cycle distribution (HeLa cells): no effect
- telomere length (HeLa cells): no effect
- DNA content (PI staining) compared to untreated cells (U-2 OS cells [3]; AZT treated cells at later stages of treatment): higher DNA content
- treatment time after which changes in cell cycle distribution, DNA synthesis and telomere length could be detected (U-2 OS cells [3]; U-2 OS, AZT): 10 days
- apoptosis (U-2 OS cells [3]; U-2 OS, AZT 0.2 μM, 14 days): massive apoptosis
- cell cycle distribution (PI) (U-2 OS cells [3]; U-2 OS, AZT 0.2 μM, 14 days): G2 arrest; also recorded: changes in cell cycle
- telomere length (telomere-specific PNA fluorescence) (U-2 OS cells [3]; U-2 OS, AZT 0.2 μM, 14 days): telomere shortening; also recorded: decrease in telomere length
- telomere length over time of treatment (U-2 OS cells [3]; U-2 OS, AZT for 10, 17 and 40 days): progressive telomere shortening
- tumor development [4]: remain tumor free

Compound: Nc1nc(O)c2ncn(COC(CO)CO)c2n1 [GCV, ganciclovir]
- apoptosis (U-2 OS cells [3]; U-2 OS, GCV 0.3 μg/ml, 14 days): massive apoptosis
- cell cycle distribution (PI) (U-2 OS cells [3]; U-2 OS, GCV 0.3 μg/ml, 14 days): G2 arrest
- telomere length (telomere-specific PNA probe) (U-2 OS cells [3]; U-2 OS, GCV 0.3 μg/ml, 14 days): telomere shortening
- cell cycle distribution (PI) (U-2 OS cells [3]; [5]): changes in cell cycle
- telomere length (telomere-specific PNA probe) (U-2 OS cells [3]; [5]): decrease in telomere length

Source: patent publication US20090099060A1, “Modulation of line-1 reverse transcriptase” (priority 2004, published 2009)
